ChEMBL document CHEMBL3232845 (Bioorg Med Chem Lett, 2014)

How the values were obtained:
[1] = target: Serine/threonine-protein kinase Sgk3 (Homo sapiens) (UniProt Q96BR1); assay: Inhibition of human SGK3 assessed as enzyme activity at 1 uM relative to control; set-up: scale not given: the % may be the effect or the level left
[2] = target: Insulin-like growth factor 1 receptor (Homo sapiens) (UniProt P08069); assay: Inhibition of human activated IGF-1R assessed as enzyme activity at 1 uM relative to control; set-up: scale not given: the % may be the effect or the level left
Insulin-like growth factor 1 receptor (Homo sapiens), sequence (P08069 31-736 limits assumed): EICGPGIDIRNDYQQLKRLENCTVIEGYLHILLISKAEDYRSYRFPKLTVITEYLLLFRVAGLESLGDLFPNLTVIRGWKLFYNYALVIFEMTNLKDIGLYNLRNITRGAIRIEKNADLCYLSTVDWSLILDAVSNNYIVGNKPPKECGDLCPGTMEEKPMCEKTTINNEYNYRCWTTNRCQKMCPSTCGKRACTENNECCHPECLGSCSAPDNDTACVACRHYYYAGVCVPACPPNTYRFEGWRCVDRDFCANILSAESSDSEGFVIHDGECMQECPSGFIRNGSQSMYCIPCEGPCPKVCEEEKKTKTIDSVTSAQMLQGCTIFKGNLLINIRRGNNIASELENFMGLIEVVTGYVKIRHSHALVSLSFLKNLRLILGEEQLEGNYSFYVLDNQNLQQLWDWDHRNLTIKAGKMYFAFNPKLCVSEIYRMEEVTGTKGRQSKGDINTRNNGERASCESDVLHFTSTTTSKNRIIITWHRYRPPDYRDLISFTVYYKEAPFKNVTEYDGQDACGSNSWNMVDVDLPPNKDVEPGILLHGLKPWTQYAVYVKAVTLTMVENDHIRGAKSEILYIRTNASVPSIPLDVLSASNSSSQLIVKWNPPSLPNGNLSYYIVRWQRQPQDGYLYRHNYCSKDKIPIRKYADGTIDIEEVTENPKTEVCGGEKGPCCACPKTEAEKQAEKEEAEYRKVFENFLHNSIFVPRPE
Insulin-like growth factor 1 receptor (Homo sapiens), sequence (P08069 741-1367 limits assumed): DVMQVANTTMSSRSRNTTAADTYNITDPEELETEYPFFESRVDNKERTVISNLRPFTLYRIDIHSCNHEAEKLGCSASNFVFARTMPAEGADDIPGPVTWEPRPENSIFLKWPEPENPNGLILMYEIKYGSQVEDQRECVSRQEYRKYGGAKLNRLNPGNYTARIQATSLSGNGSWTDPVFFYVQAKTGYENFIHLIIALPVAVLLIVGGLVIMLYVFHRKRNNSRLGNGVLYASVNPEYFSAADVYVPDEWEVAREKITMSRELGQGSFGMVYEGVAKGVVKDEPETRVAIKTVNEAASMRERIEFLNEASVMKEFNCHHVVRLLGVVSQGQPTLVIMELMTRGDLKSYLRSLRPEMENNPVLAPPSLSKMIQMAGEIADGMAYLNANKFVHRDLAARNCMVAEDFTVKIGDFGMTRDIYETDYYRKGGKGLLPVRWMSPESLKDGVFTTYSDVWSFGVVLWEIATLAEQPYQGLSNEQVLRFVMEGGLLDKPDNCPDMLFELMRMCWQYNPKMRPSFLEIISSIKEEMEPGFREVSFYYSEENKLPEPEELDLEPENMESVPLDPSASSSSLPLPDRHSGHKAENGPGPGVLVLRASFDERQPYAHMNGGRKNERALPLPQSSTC

[3] = target: Ephrin type-A receptor 7 (Homo sapiens) (UniProt Q15375); assay: Inhibition of human EphA7 assessed as enzyme activity at 1 uM relative to control; set-up: scale not given: the % may be the effect or the level left
[4] = target: Serine/threonine-protein kinase Nek3 (Homo sapiens) (UniProt P51956); assay: Inhibition of human NEK3 assessed as enzyme activity at 1 uM relative to control; set-up: scale not given: the % may be the effect or the level left
[5] = target: Ribosomal protein S6 kinase alpha-2 (Homo sapiens) (UniProt Q15349); assay: Inhibition of human Rsk3 assessed as enzyme activity at 1 uM relative to control; set-up: scale not given: the % may be the effect or the level left
[6] = target: T1, Serine/threonine-protein kinase B-raf (Homo sapiens, UniProt P15056, V600E); assay: Inhibition of B-Raf V600E mutant in human Malme-3M cells assessed as basal ERK phosphorylation; format: cell-based
T1 sequence (P15056 2-766 V600E limits assumed): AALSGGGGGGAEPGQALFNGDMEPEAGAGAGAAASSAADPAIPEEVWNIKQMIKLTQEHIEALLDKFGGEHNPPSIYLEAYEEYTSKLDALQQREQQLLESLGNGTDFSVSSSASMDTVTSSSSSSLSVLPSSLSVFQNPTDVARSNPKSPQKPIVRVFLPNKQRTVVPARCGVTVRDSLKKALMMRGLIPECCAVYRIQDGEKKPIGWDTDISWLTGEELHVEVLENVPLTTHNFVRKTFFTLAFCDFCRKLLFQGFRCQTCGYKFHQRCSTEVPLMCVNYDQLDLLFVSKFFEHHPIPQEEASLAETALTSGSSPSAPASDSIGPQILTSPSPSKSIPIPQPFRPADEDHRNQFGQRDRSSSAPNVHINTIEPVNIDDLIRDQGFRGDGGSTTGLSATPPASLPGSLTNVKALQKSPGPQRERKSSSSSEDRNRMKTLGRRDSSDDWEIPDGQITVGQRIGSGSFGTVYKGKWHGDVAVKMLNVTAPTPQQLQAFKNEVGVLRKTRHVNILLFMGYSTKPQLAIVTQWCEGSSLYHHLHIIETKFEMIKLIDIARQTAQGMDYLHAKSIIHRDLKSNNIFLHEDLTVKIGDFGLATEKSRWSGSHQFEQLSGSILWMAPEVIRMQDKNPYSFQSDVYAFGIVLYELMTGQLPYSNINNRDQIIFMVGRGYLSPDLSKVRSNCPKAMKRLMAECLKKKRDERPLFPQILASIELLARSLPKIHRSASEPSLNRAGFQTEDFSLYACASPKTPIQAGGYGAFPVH

[7] = target: T1, Serine/threonine-protein kinase B-raf; assay: Inhibition of full-length B-Raf V600E mutant (unknown origin)
[8] = target: Serine/threonine-protein kinase Nek2 (Homo sapiens) (UniProt P51955); assay: Inhibition of human NEK2 assessed as enzyme activity at 1 uM relative to control; set-up: scale not given: the % may be the effect or the level left
Serine/threonine-protein kinase Nek2 (Homo sapiens), sequence (P51955 whole entry): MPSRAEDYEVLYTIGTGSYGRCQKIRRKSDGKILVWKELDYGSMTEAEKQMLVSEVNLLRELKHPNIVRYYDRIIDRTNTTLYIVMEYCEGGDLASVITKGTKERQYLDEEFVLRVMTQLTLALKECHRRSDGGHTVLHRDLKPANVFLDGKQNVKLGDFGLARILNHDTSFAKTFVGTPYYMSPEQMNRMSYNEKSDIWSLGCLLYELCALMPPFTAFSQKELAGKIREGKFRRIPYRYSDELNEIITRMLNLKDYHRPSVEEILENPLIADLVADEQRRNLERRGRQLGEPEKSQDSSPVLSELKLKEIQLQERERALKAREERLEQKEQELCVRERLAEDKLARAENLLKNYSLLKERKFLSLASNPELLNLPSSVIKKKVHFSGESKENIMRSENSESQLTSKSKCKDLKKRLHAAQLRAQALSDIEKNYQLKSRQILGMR

[9] = target: Serine/threonine-protein kinase NLK (Homo sapiens) (UniProt Q9UBE8); assay: Inhibition of human NLK assessed as enzyme activity at 1 uM relative to control; set-up: scale not given: the % may be the effect or the level left
[10] = target: 3-phosphoinositide-dependent protein kinase 1 (Homo sapiens) (UniProt O15530); assay: Inhibition of human PDK1 assessed as enzyme activity at 1 uM relative to control; set-up: scale not given: the % may be the effect or the level left
[11] = target: Tyrosine-protein kinase HCK (Homo sapiens) (UniProt P08631); assay: Inhibition of human Hck assessed as enzyme activity at 1 uM relative to control; set-up: scale not given: the % may be the effect or the level left
[12] = target: MAP kinase-activated protein kinase 2 (Homo sapiens) (UniProt P49137); assay: Inhibition of human MAPKAP-K2 assessed as enzyme activity at 1 uM relative to control; set-up: scale not given: the % may be the effect or the level left
[13] = target: mTOR/FKBP12A/FKBP12B (Homo sapiens) (UniProt P62942+P68106+P42345); assay: Inhibition of human mTOR/FKBP12 assessed as enzyme activity at 1 uM relative to control; format: protein-complex assay; set-up: scale not given: the % may be the effect or the level left
mTOR/FKBP12A/FKBP12B (Homo sapiens), sequence (P62942 2-108 limits assumed, other chains not shown): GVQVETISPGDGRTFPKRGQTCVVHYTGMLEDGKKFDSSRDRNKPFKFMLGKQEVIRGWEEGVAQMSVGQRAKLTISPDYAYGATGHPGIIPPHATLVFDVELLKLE
mTOR/FKBP12A/FKBP12B (Homo sapiens), sequence (P68106 whole entry partner, other chains not shown): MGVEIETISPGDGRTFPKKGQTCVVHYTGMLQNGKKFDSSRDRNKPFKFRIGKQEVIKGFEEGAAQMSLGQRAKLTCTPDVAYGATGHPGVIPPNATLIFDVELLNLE

[14] = target: Maternal embryonic leucine zipper kinase (Homo sapiens) (UniProt Q14680); assay: Inhibition of human MELK assessed as enzyme activity at 1 uM relative to control; set-up: scale not given: the % may be the effect or the level left
[15] = target: Tyrosine-protein kinase Fes/Fps (Homo sapiens) (UniProt P07332); assay: Inhibition of human Fes assessed as enzyme activity at 1 uM relative to control; set-up: scale not given: the % may be the effect or the level left
[16] = target: Tyrosine-protein kinase ITK/TSK (Homo sapiens) (UniProt Q08881); assay: Inhibition of human ITK assessed as enzyme activity at 1 uM relative to control; set-up: scale not given: the % may be the effect or the level left
Sus scrofa = organism: Sus scrofa; assay: Inhibition of […] pig Abl assessed as enzyme activity at 1 uM relative to control; set-up: scale not given: the % may be the effect or the level left
[17] = target: Insulin receptor (Homo sapiens) (UniProt P06213); assay: Inhibition of human activated IR assessed as enzyme activity at 1 uM relative to control; set-up: scale not given: the % may be the effect or the level left
Insulin receptor (Homo sapiens), sequence (P06213 28-758 limits assumed): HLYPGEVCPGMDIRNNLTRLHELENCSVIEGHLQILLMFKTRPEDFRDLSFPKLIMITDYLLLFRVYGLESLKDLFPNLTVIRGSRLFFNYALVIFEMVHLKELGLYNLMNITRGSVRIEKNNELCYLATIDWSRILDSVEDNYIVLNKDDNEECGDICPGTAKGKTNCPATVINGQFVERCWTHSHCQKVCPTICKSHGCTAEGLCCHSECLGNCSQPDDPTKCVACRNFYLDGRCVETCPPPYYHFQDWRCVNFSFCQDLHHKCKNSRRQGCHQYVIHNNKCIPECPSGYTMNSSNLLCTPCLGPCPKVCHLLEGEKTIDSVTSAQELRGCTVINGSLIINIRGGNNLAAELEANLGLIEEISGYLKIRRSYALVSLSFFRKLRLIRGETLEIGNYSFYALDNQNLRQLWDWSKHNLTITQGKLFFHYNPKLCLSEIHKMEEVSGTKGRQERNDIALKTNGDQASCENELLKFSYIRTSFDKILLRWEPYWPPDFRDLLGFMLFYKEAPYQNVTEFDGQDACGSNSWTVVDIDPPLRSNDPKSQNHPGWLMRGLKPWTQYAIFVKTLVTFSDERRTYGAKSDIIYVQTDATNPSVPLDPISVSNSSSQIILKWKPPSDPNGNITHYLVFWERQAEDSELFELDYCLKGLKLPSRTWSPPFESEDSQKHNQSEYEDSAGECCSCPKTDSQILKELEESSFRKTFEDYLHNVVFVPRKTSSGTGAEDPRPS
Insulin receptor (Homo sapiens), sequence (P06213 763-1382 limits assumed): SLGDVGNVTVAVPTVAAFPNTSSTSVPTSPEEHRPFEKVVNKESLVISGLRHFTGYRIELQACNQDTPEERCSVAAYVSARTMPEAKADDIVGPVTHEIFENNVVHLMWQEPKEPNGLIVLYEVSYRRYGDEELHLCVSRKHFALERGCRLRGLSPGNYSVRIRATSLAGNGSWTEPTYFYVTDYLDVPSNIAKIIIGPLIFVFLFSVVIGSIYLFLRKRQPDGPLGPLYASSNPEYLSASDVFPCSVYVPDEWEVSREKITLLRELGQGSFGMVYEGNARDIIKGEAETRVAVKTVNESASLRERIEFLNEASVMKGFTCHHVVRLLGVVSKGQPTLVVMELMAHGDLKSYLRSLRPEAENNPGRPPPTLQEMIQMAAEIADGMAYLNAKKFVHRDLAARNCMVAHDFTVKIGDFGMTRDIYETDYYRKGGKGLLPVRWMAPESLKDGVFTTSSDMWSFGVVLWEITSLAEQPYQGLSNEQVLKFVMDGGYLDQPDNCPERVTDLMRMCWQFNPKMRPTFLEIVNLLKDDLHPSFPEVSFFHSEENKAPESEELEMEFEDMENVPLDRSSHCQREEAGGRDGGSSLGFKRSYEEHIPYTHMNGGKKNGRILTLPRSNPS

[18] = target: Hepatocyte growth factor receptor (Homo sapiens) (UniProt P08581); assay: Inhibition of human Met assessed as enzyme activity at 1 uM relative to control; set-up: scale not given: the % may be the effect or the level left
[19] = target: G protein-coupled receptor kinase 6 (Homo sapiens) (UniProt P43250); assay: Inhibition of human GRK6 assessed as enzyme activity at 1 uM relative to control; set-up: scale not given: the % may be the effect or the level left
[20] = target: Fibroblast growth factor receptor 2 (Homo sapiens) (UniProt P21802); assay: Inhibition of human FGFR2 assessed as enzyme activity at 1 uM relative to control; set-up: scale not given: the % may be the effect or the level left
[21] = Volume of distribution in mouse; format: ADME, organism-based; settings: in vivo
[22] = target: Serine/threonine-protein kinase ULK3 (Homo sapiens) (UniProt Q6PHR2); assay: Inhibition of human ULK3 assessed as enzyme activity at 1 uM relative to control; set-up: scale not given: the % may be the effect or the level left
Serine/threonine-protein kinase ULK3 (Homo sapiens), sequence (Q6PHR2 whole entry): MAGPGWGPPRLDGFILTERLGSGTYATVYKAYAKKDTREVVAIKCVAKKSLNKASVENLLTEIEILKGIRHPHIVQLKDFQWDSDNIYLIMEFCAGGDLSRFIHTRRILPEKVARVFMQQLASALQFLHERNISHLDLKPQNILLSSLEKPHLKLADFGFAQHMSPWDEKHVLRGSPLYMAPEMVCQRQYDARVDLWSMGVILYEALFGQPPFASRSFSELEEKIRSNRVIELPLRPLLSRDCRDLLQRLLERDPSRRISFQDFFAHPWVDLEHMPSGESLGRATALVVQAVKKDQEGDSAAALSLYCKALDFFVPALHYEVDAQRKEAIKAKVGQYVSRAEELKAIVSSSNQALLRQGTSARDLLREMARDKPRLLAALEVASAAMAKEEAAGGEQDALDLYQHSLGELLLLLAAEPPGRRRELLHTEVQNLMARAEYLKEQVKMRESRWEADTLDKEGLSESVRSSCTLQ

Saccharomyces cerevisiae = assay: Inhibition of yeast CK1 assessed as enzyme activity at 1 uM relative to control; set-up: scale not given: the % may be the effect or the level left
TAK1/TAB1 (Homo sapiens) = TAK1/TAB1 (Homo sapiens) (UniProt Q15750+O43318); assay: Inhibition of human TAK1-TAB1 assessed as enzyme activity at 1 uM relative to control; format: protein-complex assay; set-up: scale not given: the % may be the effect or the level left
[23] = target: Serine/threonine-protein kinase TAO2 (Homo sapiens) (UniProt Q9UL54); assay: Inhibition of human TAO2 assessed as enzyme activity at 1 uM relative to control; set-up: scale not given: the % may be the effect or the level left
[24] = target: Protein kinase C gamma type (Homo sapiens) (UniProt P05129); assay: Inhibition of human PKCgamma assessed as enzyme activity at 1 uM relative to control; set-up: scale not given: the % may be the effect or the level left
[25] = target: Casein kinase I isoform gamma-1 (Homo sapiens) (UniProt Q9HCP0); assay: Inhibition of human CK1gamma1 assessed as enzyme activity at 1 uM relative to control; set-up: scale not given: the % may be the effect or the level left
[26] = target: Activin receptor type-1B (Homo sapiens) (UniProt P36896); assay: Inhibition of human ALK4 assessed as enzyme activity at 1 uM relative to control; set-up: scale not given: the % may be the effect or the level left
[27] = target: Cyclin-dependent kinase 2/cyclin E1 (Homo sapiens) (UniProt P24864+P24941); assay: Inhibition of human CDK2/cyclinE assessed as enzyme activity at 1 uM relative to control; format: protein-complex assay; set-up: scale not given: the % may be the effect or the level left
[28] = target: Protein kinase C eta type (Homo sapiens) (UniProt P24723); assay: Inhibition of human PKCeta assessed as enzyme activity at 1 uM relative to control; set-up: scale not given: the % may be the effect or the level left
[29] = target: CDK3/Cyclin E (Homo sapiens) (UniProt P24864+Q00526); assay: Inhibition of human CDK3/cyclinE assessed as enzyme activity at 1 uM relative to control; format: protein-complex assay; set-up: scale not given: the % may be the effect or the level left
[30] = target: cAMP-dependent protein kinase catalytic subunit PRKX (Homo sapiens) (UniProt P51817); assay: Inhibition of human PrKX assessed as enzyme activity at 1 uM relative to control; set-up: scale not given: the % may be the effect or the level left
cAMP-dependent protein kinase catalytic subunit PRKX (Homo sapiens), sequence (P51817 whole entry): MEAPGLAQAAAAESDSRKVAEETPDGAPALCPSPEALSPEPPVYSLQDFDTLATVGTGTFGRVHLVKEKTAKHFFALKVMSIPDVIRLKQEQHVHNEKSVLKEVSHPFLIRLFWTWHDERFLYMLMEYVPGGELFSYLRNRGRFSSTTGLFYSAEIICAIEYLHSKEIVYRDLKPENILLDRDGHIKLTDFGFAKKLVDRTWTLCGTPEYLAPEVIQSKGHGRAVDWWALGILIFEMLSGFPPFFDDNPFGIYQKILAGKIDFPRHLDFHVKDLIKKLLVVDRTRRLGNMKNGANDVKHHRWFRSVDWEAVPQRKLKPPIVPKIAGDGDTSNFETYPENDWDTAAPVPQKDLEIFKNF

[31] = target: Protein kinase C alpha type (Homo sapiens) (UniProt P17252); assay: Inhibition of human PKCalpha assessed as enzyme activity at 1 uM relative to control; set-up: scale not given: the % may be the effect or the level left
[32] = target: Serine/threonine-protein kinase Nek6 (Homo sapiens) (UniProt Q9HC98); assay: Inhibition of human NEK6 assessed as enzyme activity at 1 uM relative to control; set-up: scale not given: the % may be the effect or the level left
[33] = target: Serine/threonine-protein kinase PLK2 (Homo sapiens) (UniProt Q9NYY3); assay: Inhibition of human Plk2 assessed as enzyme activity at 1 uM relative to control; set-up: scale not given: the % may be the effect or the level left
[34] = target: Myosin light chain kinase, smooth muscle (Homo sapiens) (UniProt Q15746); assay: Inhibition of human MYLK assessed as enzyme activity at 1 uM relative to control; set-up: scale not given: the % may be the effect or the level left
[35] = target: Ephrin type-A receptor 5 (Homo sapiens) (UniProt P54756); assay: Inhibition of human EphA5 assessed as enzyme activity at 1 uM relative to control; set-up: scale not given: the % may be the effect or the level left
[36] = target: Mitogen-activated protein kinase 9 (Homo sapiens) (UniProt P45984); assay: Inhibition of human JNK2alpha2 assessed as enzyme activity at 1 uM relative to control; set-up: scale not given: the % may be the effect or the level left

SMILES: CCCS(=O)(=O)Nc1cccc(Nc2ccc3ncn(C)c(=O)c3c2)c1C#N
- Activity [1]: 108%
- Activity [2]: 84%
- Activity [3]: 99%
- Activity [4]: 112%
- Activity [5]: 87%
- IC50 [6]: 6 nM
- IC50 [7]: 0.3 nM
- Activity [8]: 116%
- Activity [9]: 102%
- Activity [10]: 105%
- Activity [11]: 94.5%
- Activity [12]: 97%
- Activity [13]: 104%
- Activity [14]: 109%
- Activity [15]: 92%
- Activity [16]: 102%
- Activity (Sus scrofa): 93%
- Activity [17]: 95%
- Activity [18]: 104%
- Activity [19]: 103%
- Activity [20]: 99.5%
- Vd [21]: 0.25 L/kg
- Activity [22]: 92%
- Activity (Saccharomyces cerevisiae): 95.5%
- Activity (TAK1/TAB1 (Homo sapiens)): 95.5%
- Activity [23]: 97%
- Activity [24]: 101%
- Activity [25]: 104%
- Activity [26]: 109%
- Activity [27]: 106%
- Activity [28]: 101%
- Activity [29]: 106%
- Activity [30]: 109%
- Activity [31]: 97%
- Activity [32]: 116%
- Activity [33]: 102%
- Activity [34]: 106%
- Activity [35]: 103%
- Activity [36]: 106%
